pIC50: −log10 of the molar value.
Molecular target: S. aureus DNA gyrase (Staphylococcus aureus, UniProt P0A0K8+P20831)
Assay: DNA gyrase supercoiling assay, purified gyrase and relaxed plasmid DNA kit
Type: biochemical

pIC50 | Structure (SMILES)
4.47 | COc1ccc(NC(=O)CNNC(=O)c2cc(-c3ccc(Br)cc3)nc3ccccc23)cc1 [6b, 2-(2-(2-(4-Bromophenyl)quinoline-4-carbonyl)hydrazinyl)-N-(4-methoxyphenyl)acetamide]
5.07 | N=C1CC(N)=NN1C(=O)c1cc(-c2ccc(Br)cc2)nc2ccccc12 [compound 10, (3-Amino-5-imino-4,5-dihydro-1H-pyrazol-1-yl)(2-(4-bromophenyl)quinolin-4-yl)methanone]

— article PMC10210181 (ACS Omega, 2023)
